Results on 43 compounds are retold here after ChEMBL document CHEMBL3232753, “Synthesis and in vitro cytotoxic effect of 6-amino-substituted 11H- and 11Me-indolo[3,2-c]quinolines” (Eur J Med Chem, 2014).

What is called IC50 is the concentration that inhibits the measured activity by half.

One assay relates to MV4-11. Put plainly: Cytotoxicity against human MV4-11 cells assessed as cell viability after 72 hrs by MTT assay. The format is functional, cell-based. The settings on record: MV4-11, 72 h. On the technique in general: Tetrazolium assays rely on reduction of a dye to a coloured formazan, in cell work by metabolically active cells.
In assay [1] the test system is HCT-116. Put plainly: Cytotoxicity against human HCT116 cells assessed as cell viability after 72 hrs by SRB assay. The format is functional, cell-based. Conditions: HCT-116, 72 h. In general terms: The SRB assay estimates cell density from bound dye.
The subject of a further assay is BALB/3T3. Put plainly: Cytotoxicity against mouse BALB/3T3 cells assessed as cell viability after 72 hrs by SRB assay. It is filed as cell-based. Conditions: BALB/3T3, 72 h.
Assay [2] has as its system A549. The assay is described as follows: Cytotoxicity against human A549 cells assessed as cell viability after 72 hrs by SRB assay. It is filed as functional, cell-based. The settings on record: A549, 72 h.
The next assay relates to Salmonidae. Put plainly: Binding affinity to Salmon fish sperm DNA by UV-visible spectroscopy.
For assay [3], the system named is HCT-116. Put plainly: Selectivity ratio of IC50 for human MV4-11 cells to IC50 for human HCT116 cells. It is filed as functional.
Assay [4] relates to A549. Put plainly: Selectivity ratio of IC50 for human A549 cells to IC50 for human HCT116 cells. The format is functional.

In the case of `CCN(CC)CCCC(C)Nc1nc2ccccc2c2c1c1ccccc1n2C` (configuration not stated), the IC50 in the assay with MV4-11 was 70 nM; in the assay with HCT-116 [1] it was 50 nM; with BALB/3T3, 500 nM; in the assay with A549 [2], 110 nM.
Take `CN(C)CCCNc1nc2ccc(Br)cc2c2c1c1ccccc1n2C`: the IC50 in the assay on MV4-11 was found to be 390 nM.
Take `NCCCN1CCN(CCCNc2nc3ccccc3c3[nH]c4ccccc4c23)CC1`: the IC50 stood at 390 nM in the assay on MV4-11, 980 nM with HCT-116 [1], 1150 nM in the assay with BALB/3T3 and 760 nM in the assay on A549 [2].
`CN(C)CCCNc1nc2ccccc2c2[nH]c3ccccc3c12`: the IC50 in the assay on MV4-11 is 410 nM; in the assay on HCT-116 [1], 550 nM; with BALB/3T3, 1180 nM; in the assay on A549 [2], 870 nM. For the same compound, in the assay on Salmonidae, the K came to 1.05 ×10⁶ L/mol.
For `COc1ccc2nc(NCCCN)c3c4ccccc4n(C)c3c2c1`, the IC50 was found to be 100 nM with MV4-11, 10 nM in the assay on HCT-116 [1], 100 nM with BALB/3T3 and 110 nM in the assay with A549 [2].
`CC(C)(CN)CNc1nc2ccc(Cl)cc2c2[nH]c3ccccc3c12`: in the assay on MV4-11, the IC50 was determined as 590 nM.
As to `NCCCCNc1nc2ccccc2c2[nH]c3ccccc3c12`, the half-inhibitory concentration (IC50) in the assay with MV4-11 was determined as 700 nM; in the assay with HCT-116 [1] it was 1060 nM; in the assay on BALB/3T3, 1140 nM; with A549 [2], 1160 nM.
Regarding `COc1ccc2nc(NCCCN)c3c4ccccc4[nH]c3c2c1`, the IC50 stood at 120 nM in the assay on MV4-11, 70 nM in the assay on HCT-116 [1], 310 nM in the assay on BALB/3T3 and 160 nM in the assay with A549 [2]. Also, in the assay with HCT-116 [3], the “Ratio IC50” value came out at 8.
Regarding `c1ccc2c(c1)nc(N1CCCNCC1)c1c3ccccc3[nH]c21`, the half-inhibitory concentration (IC50) with MV4-11 worked out at 850 nM; with HCT-116 [1] it was 1730 nM; in the assay on BALB/3T3, 10100 nM; in the assay with A549 [2], 2460 nM.
As for `CN(C)CCCNc1nc2ccc(Cl)cc2c2c1c1ccccc1n2C`, the IC50 in the assay on MV4-11 was found to be 80 nM; with HCT-116 [1], 100 nM; in the assay with BALB/3T3, 820 nM; with A549 [2], 570 nM. The K in the assay on Salmonidae was determined as 4.84 ×10⁶ L/mol.
On to `NCCCNc1nc2ccc(Cl)cc2c2[nH]c3ccccc3c12`, for which the IC50 in the assay with MV4-11 is 560 nM.
`CN(C)CCCNc1nc2ccccc2c2c1c1ccccc1n2C`: the half-inhibitory concentration (IC50) in the assay on MV4-11 worked out at 140 nM; with HCT-116 [1] it was 200 nM; in the assay on BALB/3T3, 780 nM; with A549 [2], 140 nM.
Turning to `NCCCCCNc1nc2ccccc2c2[nH]c3ccccc3c12`, the IC50 with MV4-11 turned out to be 610 nM; in the assay on HCT-116 [1], 1060 nM; with BALB/3T3, 1010 nM; in the assay on A549 [2] it was 1050 nM.
As to `CN1CCCN(c2nc3ccccc3c3c2c2ccccc2n3C)CC1`, the IC50 with MV4-11 was determined as 960 nM.
On the same count and under the same terms, the same measure for `Cn1c2ccccc2c2c(NCC(C)(C)CN)nc3ccc(Br)cc3c21`: 500 nM; for `CCN(CC)CCCC(C)Nc1nc2ccc(Cl)cc2c2c1c1ccccc1n2C` (configuration not stated): 570 nM.
As for `NCCCNc1nc2ccc(Br)cc2c2[nH]c3ccccc3c12`, in the assay on MV4-11, the IC50 worked out at 650 nM.
Regarding `Cn1c2ccccc2c2c(NCCCN)nc3ccc([N+](=O)[O-])cc3c21`, the IC50 in the assay with MV4-11 is 50 nM; in the assay with HCT-116 [1], 10 nM; in the assay on BALB/3T3 it was 80 nM; in the assay with A549 [2], 110 nM.
Take `c1ccc(Nc2nc3ccccc3c3[nH]c4ccccc4c23)cc1`: the half-maximal inhibitory concentration (IC50) in the assay on MV4-11 was determined as 8370 nM.
Same read-out and setting: the same measure for `Cn1c2ccccc2c2c(NCC(C)(C)CN)nc3ccc(Cl)cc3c21`: 560 nM.
`c1ccc2c(c1)nc(NCC1CCCO1)c1c3ccccc3[nH]c21` (configuration not stated): the IC50 is 750 nM in the assay on MV4-11, 1280 nM in the assay on HCT-116 [1], 3040 nM with BALB/3T3 and 1400 nM in the assay with A549 [2].
Regarding `Clc1nc2ccccc2c2[nH]c3ccccc3c12`, the IC50 in the assay with MV4-11 was determined as 9140 nM.
On the same count and under the same terms, the same measure for `c1ccc2c(c1)nc(N1CCOCC1)c1c3ccccc3[nH]c21`: 9430 nM.
Same read-out and setting: the same measure for `Cn1c2ccccc2c2c(Cl)nc3ccccc3c21`: 16600 nM.
Regarding `NCCCCCCNc1nc2ccccc2c2[nH]c3ccccc3c12`, the IC50 with MV4-11 came out at 710 nM; with HCT-116 [1] it was 1080 nM; in the assay on BALB/3T3 it was 1070 nM; with A549 [2], 1060 nM.
`Cc1ccc2nc(NCCCN)c3c4ccccc4[nH]c3c2c1`: the IC50 in the assay on MV4-11 is 140 nM; with HCT-116 [1], 80 nM; in the assay on BALB/3T3 it was 920 nM; with A549 [2] it was 210 nM. Besides, the “Ratio IC50” value in the assay with HCT-116 [3] is listed as 8.
Regarding `CN1CCCN(c2nc3ccccc3c3[nH]c4ccccc4c23)CC1`, the IC50 in the assay with MV4-11 came to 740 nM; with HCT-116 [1] it was 1650 nM; in the assay with BALB/3T3, 8960 nM; in the assay on A549 [2], 1970 nM.
With `OCCCNc1nc2ccccc2c2[nH]c3ccccc3c12`, the IC50 in the assay with MV4-11 amounted to 380 nM; in the assay on HCT-116 [1], 260 nM; in the assay on BALB/3T3 it was 860 nM; in the assay with A549 [2], 2210 nM. Moreover, the “Ratio IC50” value in the assay on A549 [4] stood at 7.
As to `Cn1c2ccccc2c2c(NCCCN)nc3ccccc3c21`, the IC50 amounted to 110 nM in the assay on MV4-11, 60 nM in the assay on HCT-116 [1], 950 nM in the assay with BALB/3T3 and 180 nM in the assay on A549 [2].
In the case of `NCCCNc1nc2ccc([N+](=O)[O-])cc2c2[nH]c3ccccc3c12`, the IC50 amounted to 150 nM in the assay with MV4-11, 100 nM in the assay on HCT-116 [1], 360 nM with BALB/3T3 and 350 nM in the assay with A549 [2].
Regarding `Cn1c2ccccc2c2c(NCCCN)nc3ccc(Br)cc3c21`, the IC50 in the assay with MV4-11 came to 430 nM.
With `Cc1ccc2nc(NCCCN)c3c4ccccc4n(C)c3c2c1`, the IC50 in the assay on MV4-11 amounted to 90 nM; in the assay on HCT-116 [1], 70 nM; with BALB/3T3, 420 nM; in the assay with A549 [2], 140 nM.
Turning to `COc1ccc(Nc2nc3ccccc3c3[nH]c4ccccc4c23)c(OC)c1`, the IC50 in the assay with MV4-11 was found to be 7280 nM.
In the case of `Cn1c2ccccc2c2c(NCCCN)nc3ccc(F)cc3c21`, the IC50 in the assay on MV4-11 is 170 nM; with HCT-116 [1] it was 110 nM; in the assay with BALB/3T3, 980 nM; in the assay with A549 [2], 250 nM.
The like results for `NCCCNc1nc2ccccc2c2[nH]c3ccccc3c12` were, in that order, 120 nM, 260 nM, 1050 nM and 170 nM.
Turning to `NCCCNc1nc2cccc(Br)c2c2[nH]c3ccccc3c12`, the IC50 in the assay on MV4-11 worked out at 600 nM.
Take `Cn1c2ccccc2c2c(NCC(C)(C)CN)nc3ccccc3c21`: the IC50 came to 150 nM in the assay on MV4-11, 130 nM in the assay on HCT-116 [1], 700 nM in the assay on BALB/3T3 and 540 nM in the assay with A549 [2].
With `Cn1c2ccccc2c2c(NCCCNC(=O)Nc3ccccc3)nc3ccccc3c21`, the IC50 is 570 nM in the assay on MV4-11, 820 nM in the assay on HCT-116 [1], 6110 nM in the assay on BALB/3T3 and 1190 nM with A549 [2].
With `c1ccc(CNc2nc3ccccc3c3[nH]c4ccccc4c23)cc1`, the IC50 in the assay on MV4-11 amounted to 770 nM; in the assay on HCT-116 [1], 1460 nM; in the assay on BALB/3T3, 8040 nM; in the assay with A549 [2], 1990 nM.
Turning to `Cn1c2ccccc2c2c(NCCCN)nc3ccc(Cl)cc3c21`, the IC50 in the assay with MV4-11 stood at 120 nM; in the assay with HCT-116 [1], 110 nM; in the assay with BALB/3T3, 940 nM; in the assay with A549 [2], 730 nM.
Turning to `NCCCNc1nc2ccc(F)cc2c2[nH]c3ccccc3c12`, the IC50 with MV4-11 worked out at 590 nM.
Take `CC(CN)CNc1nc2ccc(Cl)cc2c2[nH]c3ccccc3c12` (configuration not stated): the IC50 in the assay on MV4-11 stood at 620 nM.
With `OCCNc1nc2ccccc2c2[nH]c3ccccc3c12`, the IC50 came to 440 nM with MV4-11, 190 nM with HCT-116 [1], 830 nM in the assay on BALB/3T3 and 1450 nM in the assay with A549 [2]. Also, the “Ratio IC50” value in the assay with A549 [4] came out at 7.
